Measurements: ChEMBL document CHEMBL1136125, “Comparative molecular field analysis (CoMFA) of phthalazine derivatives as phosphodiesterase IV inhibitors” (Bioorg Med Chem Lett, 2003)

Tests used:
[1] = target: T1, Phosphodiesterase 4 (Homo sapiens, UniProt P27815+Q08499+Q07343+Q08493); assay: Inhibitory concentration against phosphodiesterase 4.; type: protein assay
[2] = target: T1, Phosphodiesterase 4; assay: In vitro inhibitory concentration against phosphodiesterase 4.; type: protein assay

| Log IC50 [1] | IC50 [2] | SMILES |
| --- | --- | --- |
| -7.12 | 75 nM | CCc1nnc(Cc2c(Cl)cncc2Cl)c2cc(OC3CCCC3)c(OC)cc12 |
| -7.25 | – | COc1ccc2c(Cc3c(Cl)cncc3Cl)nncc2c1OCCCCCc1ccccc1 |
| -6.84 | 146 nM | COc1cc2c(C)nnc(Cc3c(Cl)cncc3Cl)c2cc1OC1CCCC1 |
| – | 153 nM | COc1ccc2c(Cc3c(Cl)cncc3Cl)nncc2c1OC1CCCO1 (stereo unspecified) |
